# According to patent US20020137929A1, “1 - (3-heterocyclylphenyl) isothiourea, -isourea, -guanidine and -amidine herbicidal agents” (Intellectual Property Department, BASF Aktiengesellschaft, priority 1998, published 2002):
# Key:
# [1] = system: GLXMAW (Soybean, Williams); test: Postemergence herbicidal evaluation; format: in vivo, Glycine max, (L.) Merr. cv Williams; conditions: postemergence
# Method in brief: (§1)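 Visual 0–9 rating versus control (stand, vigor, malformation, size, chlorosis, overall appearance), taken four to five weeks post-spray. Two-week-old seedlings received roughly 0.0156–0.500 kg/ha active in acetone/water (50/50) with 0.5% TWEEN 20 via nozzle at 40 psi.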
# GALAP (Galium) [2] = test: Postemergence herbicidal evaluation; format: in vivo, Galium aparine; conditions: postemergence
# Method in brief: as §1
# [3] = system: SAGPY (Arrowhead (Pygmaea)); test: Preemergence weed control under flooded paddy conditions; format: in vivo, Sagittaria pygmaea; conditions: rated 3-4 weeks after treatment
# Method in brief: (§2)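 Visual injury scored 0-9 against control three to four weeks post-treatment, greenhouse-grown. Application: acetone/water (50/50) solutions dosed directly into flood water (1.5-3 cm over silt loam, planted top 0.5 cm), roughly 0.0313 to 0.500 kg/ha active ingredient.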
# [4] = system: SAGPY (Arrowhead (Pygmaea)); test: Postemergence weed control under flooded paddy conditions; format: in vivo, Sagittaria pygmaea; conditions: postemergence weeds, 3-4 weeks after treatment
# Method in brief: (§3)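 Weeds 3 to 5 cm tall and rice seedlings at the 1.5 to 2.5 leaf stage were flooded, with water held 1.5 to 3 cm above the soil. Compounds in 50/50 v/v aqueous/acetone went into the flood water at about 0.0313 to 0.500 kg/ha. Visual 0-9 ratings versus control were made 3 to 4 weeks later.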
# CYPSE (Flatsedge) = test: Preemergence weed control under flooded paddy conditions; format: in vivo, Cyperus serotinus; conditions: rated 3-4 weeks after treatment
# Method in brief: as §2
# [5] = system: ECHORC (Watergrass (Calif.)); test: as above; format: in vivo, Echinochloa oryzoides; conditions: rated 3-4 weeks after treatment
# Method in brief: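 Seeds or propagules sown in top 0.5 cm of silt loam soil, flooded 1.5 to 3 cm above surface throughout. Compound in 50/50 v/v aqueous/acetone pipetted into flood water at about 0.0313 to 0.500 kg/ha. Visual 0-9 rating versus control after three to four weeks in greenhouse.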
# [6] = system: ECHORC (Watergrass (Calif.)); test: Postemergence weed control under flooded paddy conditions; format: in vivo, Echinochloa oryzoides; conditions: postemergence weeds, 3-4 weeks after treatment
# Method in brief: as §3
# MOOVA (Monochoria) = test: Preemergence weed control under flooded paddy conditions; format: in vivo, Monochoria vaginalis; conditions: rated 3-4 weeks after treatment
# Method in brief: as §2
# [7] = system: TRZAWR (Wheat, Winter, cv Riband); test: Postemergence herbicidal evaluation; format: in vivo, Triticum aestivum; conditions: postemergence
# Method in brief: as §1
# CASOB (Sicklepod) = test: Postemergence herbicidal evaluation; format: in vivo, Cassia obtusifolia; conditions: postemergence
# Method in brief: as §1
# ORYSAT (Rice, Tebonnet) = test: Preemergence herbicidal evaluation; format: in vivo, Oryza sativa, (L.) Tebonnet; conditions: rated 4-5 weeks after treatment
# Method in brief: (§4)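 Seeds were mixed with potting soil and planted on about one inch of soil, then sprayed with test compound in aqueous acetone at about 0.0156 to 0.500 kg per hectare. Plants grew under standard greenhouse care and were visually rated 0-9 against untreated controls 4-5 weeks post-treatment.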
# GALAP (Galium) [8] = test: Preemergence herbicidal evaluation; format: in vivo, Galium aparine; conditions: rated 4-5 weeks after treatment
# Method in brief: as §4
# AMBEL (Ragweed, Common) = test: Postemergence herbicidal evaluation; format: in vivo, Ambrosia artemisifolia; conditions: postemergence
# Method in brief: as §1
# SETVI (Foxtail, Green) = test: Preemergence herbicidal evaluation; format: in vivo, Setaria viridis; conditions: rated 4-5 weeks after treatment
# Method in brief: as §4
structure (smiles),measurement,setting,value
"CCOC(=O)CN1C(=O)C(=Cc2ccccc2)SC1=Nc1cc(-n2c(=O)cc(C(F)(F)F)n(C)c2=O)c(F)cc1Cl [Compound 19, Ethyl 5-benzylidene-2-{{2-chloro-5-[3,6-dihydro-3-methyl-2,6-dioxo-4-(trifluoromethyl)-1(2H)-pyrimidinyl]-4-fluorophenyl}imino}-4-oxo-3-thiazolidineacetate]",GLXMAW herbicidal rating,[1]; rate 0.0158 kg/ha,3.0
same,GLXMAW herbicidal rating,[1]; rate 0.0315 kg/ha,4.5
same,GLXMAW herbicidal rating,[1]; rate 0.0630 kg/ha,4.5
same,GALAP herbicidal rating,GALAP (Galium) [2]; rate 0.0158 kg/ha,2.0
same,GALAP herbicidal rating,GALAP (Galium) [2]; rate 0.0315 kg/ha,3.0
same,GALAP herbicidal rating,GALAP (Galium) [2]; rate 0.0630 kg/ha,3.0
same,Herbicidal rating SAGPY,[3]; 0.1160 kg/ha,0.0
same,Herbicidal rating SAGPY,[3]; 0.2310 kg/ha,3.0
same,Herbicidal rating SAGPY,[3]; 0.4630 kg/ha,3.0
same,Herbicidal rating SAGPY,[4]; rate 0.1160 kg/ha,0.0
same,Herbicidal rating SAGPY,[4]; rate 0.2310 kg/ha,3.0
same,Herbicidal rating SAGPY,[4]; rate 0.4630 kg/ha,3.0
same,Herbicidal rating CYPSE,CYPSE (Flatsedge); 0.1160 kg/ha,4.0
same,Herbicidal rating CYPSE,CYPSE (Flatsedge); 0.2310 kg/ha,4.0
same,Herbicidal rating CYPSE,CYPSE (Flatsedge); 0.4630 kg/ha,4.0
same,Herbicidal rating ECHORC,[5]; 0.1160 kg/ha,7.0
same,Herbicidal rating ECHORC,[5]; 0.2310 kg/ha,7.0
same,Herbicidal rating ECHORC,[5]; 0.4630 kg/ha,9.0
same,Herbicidal rating ECHORC,[6]; rate 0.1160 kg/ha,7.0
same,Herbicidal rating ECHORC,[6]; rate 0.2310 kg/ha,7.0
same,Herbicidal rating ECHORC,[6]; rate 0.4630 kg/ha,9.0
same,Herbicidal rating MOOVA,MOOVA (Monochoria); 0.1160 kg/ha,9.0
same,Herbicidal rating MOOVA,MOOVA (Monochoria); 0.2310 kg/ha,9.0
same,Herbicidal rating MOOVA,MOOVA (Monochoria); 0.4630 kg/ha,9.0
same,TRZAWR herbicidal rating,[7]; rate 0.0158 kg/ha,3.0
same,TRZAWR herbicidal rating,[7]; rate 0.0315 kg/ha,4.0
same,TRZAWR herbicidal rating,[7]; rate 0.0630 kg/ha,4.5
same,CASOB herbicidal rating,CASOB (Sicklepod); rate 0.0158 kg/ha,0.0
same,CASOB herbicidal rating,CASOB (Sicklepod); rate 0.0315 kg/ha,1.0
same,CASOB herbicidal rating,CASOB (Sicklepod); rate 0.0630 kg/ha,1.0
same,ORYSAT preemergence herbicidal rating,"ORYSAT (Rice, Tebonnet); rate 0.1250 kg/ha",0.0
same,ORYSAT preemergence herbicidal rating,"ORYSAT (Rice, Tebonnet); rate 0.2500 kg/ha",0.0
same,GALAP preemergence herbicidal rating,GALAP (Galium) [8]; rate 0.1250 kg/ha,0.0
same,GALAP preemergence herbicidal rating,GALAP (Galium) [8]; rate 0.2500 kg/ha,0.0
same,AMBEL herbicidal rating,"AMBEL (Ragweed, Common); rate 0.0158 kg/ha",3.0
same,AMBEL herbicidal rating,"AMBEL (Ragweed, Common); rate 0.0315 kg/ha",3.0
same,AMBEL herbicidal rating,"AMBEL (Ragweed, Common); rate 0.0630 kg/ha",7.0
same,SETVI preemergence herbicidal rating,"SETVI (Foxtail, Green); rate 0.1250 kg/ha",0.0
same,SETVI preemergence herbicidal rating,"SETVI (Foxtail, Green); rate 0.2500 kg/ha",0.0
"CCOC(=O)CN1C(=O)CO/C1=N/c1cc(-n2c(=O)cc(C(F)(F)F)n(C)c2=O)c(F)cc1Cl [Compound 22, Ethyl 2-{{2-chloro-5-[3,6-dihydro-3-methyl-2,6-dioxo-4-(trifluoromethyl)-1(2H)-pyrimidinyl]-4-fluorophenyl}imino}-4-oxo-3-oxazolidineacetate]",GLXMAW herbicidal rating,[1]; rate 0.0158 kg/ha,5.5
same,GLXMAW herbicidal rating,[1]; rate 0.0315 kg/ha,6.5
same,GLXMAW herbicidal rating,[1]; rate 0.0630 kg/ha,5.5
same,GALAP herbicidal rating,GALAP (Galium) [2]; rate 0.0158 kg/ha,4.0
same,GALAP herbicidal rating,GALAP (Galium) [2]; rate 0.0315 kg/ha,4.0
same,GALAP herbicidal rating,GALAP (Galium) [2]; rate 0.0630 kg/ha,3.0
same,Herbicidal rating SAGPY,[3]; 0.1160 kg/ha,4.0
same,Herbicidal rating SAGPY,[3]; 0.2310 kg/ha,4.0
same,Herbicidal rating SAGPY,[3]; 0.4630 kg/ha,5.0
same,Herbicidal rating SAGPY,[4]; rate 0.1160 kg/ha,4.0
same,Herbicidal rating SAGPY,[4]; rate 0.2310 kg/ha,4.0
same,Herbicidal rating SAGPY,[4]; rate 0.4630 kg/ha,5.0
same,Herbicidal rating CYPSE,CYPSE (Flatsedge); 0.1160 kg/ha,4.0
same,Herbicidal rating CYPSE,CYPSE (Flatsedge); 0.2310 kg/ha,4.0
same,Herbicidal rating CYPSE,CYPSE (Flatsedge); 0.4630 kg/ha,4.0
same,Herbicidal rating ECHORC,[5]; 0.1160 kg/ha,6.0
same,Herbicidal rating ECHORC,[5]; 0.2310 kg/ha,9.0
same,Herbicidal rating ECHORC,[5]; 0.4630 kg/ha,9.0
same,Herbicidal rating ECHORC,[6]; rate 0.1160 kg/ha,6.0
same,Herbicidal rating ECHORC,[6]; rate 0.2310 kg/ha,9.0
same,Herbicidal rating ECHORC,[6]; rate 0.4630 kg/ha,9.0
same,Herbicidal rating MOOVA,MOOVA (Monochoria); 0.1160 kg/ha,9.0
same,Herbicidal rating MOOVA,MOOVA (Monochoria); 0.2310 kg/ha,9.0
same,Herbicidal rating MOOVA,MOOVA (Monochoria); 0.4630 kg/ha,9.0
same,TRZAWR herbicidal rating,[7]; rate 0.0158 kg/ha,4.0
same,TRZAWR herbicidal rating,[7]; rate 0.0315 kg/ha,3.5
same,TRZAWR herbicidal rating,[7]; rate 0.0630 kg/ha,5.0
same,CASOB herbicidal rating,CASOB (Sicklepod); rate 0.0158 kg/ha,1.0
same,CASOB herbicidal rating,CASOB (Sicklepod); rate 0.0315 kg/ha,2.0
same,CASOB herbicidal rating,CASOB (Sicklepod); rate 0.0630 kg/ha,1.0
same,ORYSAT preemergence herbicidal rating,"ORYSAT (Rice, Tebonnet); rate 0.0156 kg/ha",0.0
same,ORYSAT preemergence herbicidal rating,"ORYSAT (Rice, Tebonnet); rate 0.0313 kg/ha",0.0
same,ORYSAT preemergence herbicidal rating,"ORYSAT (Rice, Tebonnet); rate 0.0625 kg/ha",0.0
same,ORYSAT preemergence herbicidal rating,"ORYSAT (Rice, Tebonnet); rate 0.1250 kg/ha",5.0
same,ORYSAT preemergence herbicidal rating,"ORYSAT (Rice, Tebonnet); rate 0.2500 kg/ha",8.0
same,GALAP preemergence herbicidal rating,GALAP (Galium) [8]; rate 0.0156 kg/ha,0.0
same,GALAP preemergence herbicidal rating,GALAP (Galium) [8]; rate 0.0313 kg/ha,0.0
same,GALAP preemergence herbicidal rating,GALAP (Galium) [8]; rate 0.0625 kg/ha,0.0
same,GALAP preemergence herbicidal rating,GALAP (Galium) [8]; rate 0.1250 kg/ha,0.0
same,GALAP preemergence herbicidal rating,GALAP (Galium) [8]; rate 0.2500 kg/ha,9.0
same,AMBEL herbicidal rating,"AMBEL (Ragweed, Common); rate 0.0158 kg/ha",6.0
same,AMBEL herbicidal rating,"AMBEL (Ragweed, Common); rate 0.0315 kg/ha",6.0
same,AMBEL herbicidal rating,"AMBEL (Ragweed, Common); rate 0.0630 kg/ha",7.0
same,SETVI preemergence herbicidal rating,"SETVI (Foxtail, Green); rate 0.0156 kg/ha",0.0
same,SETVI preemergence herbicidal rating,"SETVI (Foxtail, Green); rate 0.0313 kg/ha",7.0
same,SETVI preemergence herbicidal rating,"SETVI (Foxtail, Green); rate 0.0625 kg/ha",9.0
same,SETVI preemergence herbicidal rating,"SETVI (Foxtail, Green); rate 0.1250 kg/ha",9.0
same,SETVI preemergence herbicidal rating,"SETVI (Foxtail, Green); rate 0.2500 kg/ha",9.0
